≈ marks a conversion by molar mass, not a printed value. Each block holds one compound with its values, some of them ahead of it.
Tests used:
Candida albicans [1] = assay: Synergistic antifungal activity against Candida albicans by microbroth dilution method; format: functional
Candida albicans [2] = assay: Antifungal activity against Candida albicans after 48 hrs by agar disc-diffusion method; format: functional
Candida albicans [3] = assay: Antifungal activity against Candida albicans; format: functional, organism-based
Trichophyton = assay: Antifungal activity against Trichophyton; format: functional
Cryptococcus neoformans [4] = assay: Fungicidal activity against Cryptococcus neoformans clinical isolate after 48 hrs; format: functional
Candida albicans [5] = assay: Fungicidal activity against Candida albicans ATCC 10231 after 48 hrs; format: functional; details: ATCC 10231, 48 h
Saccharomyces cerevisiae = assay: Fungicidal activity against Saccharomyces cerevisiae ATCC 9763 after 48 hrs; format: functional; details: ATCC 9763, 48 h
Aspergillus fumigatus = assay: Fungicidal activity against Aspergillus fumigatus ATTC 26934 after 48 hrs; format: functional; details: ATTC 26934, 48 h
[6] = system: Trichophyton mentagrophytes; assay: Fungicidal activity against Trichophyton mentagrophytes ATCC 9972 after 48 hrs; format: functional; details: ATCC 9972, 48 h
Aspergillus niger = assay: Fungicidal activity against Aspergillus niger ATCC 9029 after 48 hrs; format: functional; details: ATCC 9029, 48 h
Trichophyton rubrum [7] = assay: Fungicidal activity against Trichophyton rubrum CCC 110 after 48 hrs; format: functional; details: CCC 110, 48 h
Aspergillus flavus = assay: Fungicidal activity against Aspergillus flavus ATCC 9170 after 48 hrs; format: functional; details: ATCC 9170, 48 h
Cryptococcus neoformans [8] = assay: Fungicidal activity against Cryptococcus neoformans ATCC 32264 after 48 hrs; format: functional; details: ATCC 32264, 48 h
Nannizzia gypsea = assay: Fungicidal activity against Microsporum gypseum CCC 115 after 48 hrs; format: functional; details: CCC 115, 48 h
Cryptococcus neoformans [9] = assay: Antifungal activity against Cryptococcus neoformans ATCC 90112 after 48 hrs by CLSI-based method; format: functional; details: ATCC 90112, 48 h
Cryptococcus neoformans [10] = assay: Antifungal activity against Cryptococcus neoformans ATCC 90112 after 48 hrs in presence of AmB by CLSI-based method; format: functional; details: ATCC 90112, 48 h
Candida albicans [11] = assay: Synergistic antifungal activity against Candida albicans after 24 hrs in presence of Miconazole by checkerboard method; format: functional, organism-based
Malassezia furfur = assay: Antifungal activity against Malassezia furfur KCTC 7744 after 12 to 18 hrs by ELISA; format: functional
Candida albicans [12] = assay: Antifungal activity against Candida albicans ATCC 90028 after 12 to 18 hrs by ELISA; format: functional
Candida albicans [13] = assay: Antifungal activity against Candida albicans ATCC10231 at 50 ug/ml relative to control; format: functional; details: ATCC 10231
Trichophyton rubrum [14] = assay: Antifungal activity against Trichophyton rubrum KCTC 6345 after 12 to 18 hrs by ELISA; format: functional
Candida parapsilosis = assay: Antifungal activity against Candida parapsilosis ATCC 22019 after 12 to 18 hrs by ELISA; format: functional; details: Lodderomyces parapsilosis
Candida albicans [15] = assay: Antifungal activity against Candida albicans ATCC10231; format: functional; details: ATCC 10231
Trichosporon beigelii = assay: Antifungal activity against Trichosporon beigelii KCTC 7707 after 12 to 18 hrs by ELISA; format: functional

SMILES: O=C(CN1CCCCC1)Nc1ccc(C(=O)/C=C/c2ccc(Cl)cc2)cc1
MIC (Candida albicans [2]): 2 µg/mL (≈ 5.22 µM)

SMILES: Cc1c(O)c2c(c3c1OC(C)(C)C=C3)O[C@H](c1ccc(O)c(O)c1)CC2=O
MIC (Candida albicans [3]): 1.96 µg/mL (≈ 5.32 µM)
MIC (Trichophyton): 1.95 µg/mL (≈ 5.29 µM)

SMILES: Cc1ccc(C(=O)/C=C/c2ccc(O)c(OCCCN(C)C)c2)cc1
MFC (Cryptococcus neoformans [4]): 62.5 µg/mL (≈ 184 µM)
MFC (Candida albicans [5]): 62.5 µg/mL (≈ 184 µM)
MFC (Saccharomyces cerevisiae): 62.5 µg/mL (≈ 184 µM)
MFC (Aspergillus fumigatus): 62.5 µg/mL (≈ 184 µM)
MFC [6]: 62.5 µg/mL (≈ 184 µM)
MFC (Aspergillus niger): 62.5 µg/mL (≈ 184 µM)
MFC (Trichophyton rubrum [7]): 62.5 µg/mL (≈ 184 µM)
MFC (Aspergillus flavus): 62.5 µg/mL (≈ 184 µM)
MFC (Cryptococcus neoformans [8]): 62.5 µg/mL (≈ 184 µM)
MFC (Nannizzia gypsea): 62.5 µg/mL (≈ 184 µM)

SMILES: CN(C)CCCOc1cc(/C=C/C(=O)c2ccc(Cl)cc2)ccc1O
MFC (Cryptococcus neoformans [4]): 31.2 µg/mL (≈ 86.8 µM)
MFC (Candida albicans [5]): 31.2 µg/mL (≈ 86.8 µM)
MFC (Saccharomyces cerevisiae): 31.2 µg/mL (≈ 86.8 µM)
MFC (Aspergillus fumigatus): 31.2 µg/mL (≈ 86.8 µM)
MFC [6]: 31.2 µg/mL (≈ 86.8 µM)
MFC (Aspergillus niger): 31.2 µg/mL (≈ 86.8 µM)
MFC (Trichophyton rubrum [7]): 31.2 µg/mL (≈ 86.8 µM)
MFC (Aspergillus flavus): 31.2 µg/mL (≈ 86.8 µM)
MFC (Cryptococcus neoformans [8]): 31.2 µg/mL (≈ 86.8 µM)
MFC (Nannizzia gypsea): 31.2 µg/mL (≈ 86.8 µM)

SMILES: C[C@@H]1[C@H](O)[C@@H](C)/C=C/C=C/C=C/C=C/C=C/C=C/C=C/[C@H](O[C@@H]2O[C@H](C)[C@@H](O)[C@H](N)[C@@H]2O)C[C@@H]2O[C@](O)(C[C@@H](O)C[C@@H](O)[C@H](O)CC[C@@H](O)C[C@@H](O)CC(=O)O[C@H]1C)C[C@H](O)[C@H]2C(=O)O [AMPHOTERICIN B]
MIC (Cryptococcus neoformans [9]): 0.03 µg/mL (≈ 0.0325 µM)

Now from value to compound, other results behind:

MIC (Candida albicans [1]): > 64 µg/mL
SMILES: C[C@@H]1O[C@@H](Oc2cc(O)c3c(=O)c(O)c(-c4ccc(O)c(O)c4)oc3c2)[C@H](O)[C@H](O)[C@H]1O

MIC (Cryptococcus neoformans [9]): 3.9 µg/mL (≈ 12.3 µM)
MIC (Cryptococcus neoformans [10]): 1 µg/mL
SMILES: COc1cc2oc(-c3ccc(O)c(O)c3)cc(=O)c2c(O)c1O

IC50 (Candida albicans [11]): 51.6 µg/mL
SMILES: COc1ccc(-c2cc(=O)c3c(O)cc(OC)cc3o2)cc1 [APIGENIN DIMETHYLETHER]

MIC (Malassezia furfur): 5 µg/mL (≈ 18.5 µM)
MIC (Candida albicans [12]): 5 µg/mL (≈ 18.5 µM)
MIC (Trichophyton rubrum [14]): 5 µg/mL (≈ 18.5 µM)
MIC (Candida parapsilosis): 5 µg/mL (≈ 18.5 µM)
MIC (Candida albicans [15]): 125 µg/mL (≈ 463 µM)
MIC (Trichosporon beigelii): 5 µg/mL (≈ 18.5 µM)
SMILES: O=c1cc(-c2ccc(O)cc2)oc2cc(O)cc(O)c12 [APIGENIN]
inhibition at 50 µg/mL (Candida albicans [13]): 99.8%

— ChEMBL document CHEMBL4311957, “Recent advances in natural antifungal flavonoids and their derivatives” (Bioorg Med Chem Lett, 2019)
